Patent US20230106943A1, “ENGINEERED ANTIMICROBIAL PEPTIDES AND USAGE THEREOF” (Peptilogics, Inc., priority 2021, published 2023)
No end group written: not given here.

Tests used:
[1] = Example 4 stability of concentrated solutions: pH (method 05627); type: physicochemical
Experimental: The peptide formulation of SEQ ID NO: 1 dissolved in a saline solution with a pH of 5.0±0.1 was tested for stability under either −20° C. or 40° C. with 75% relative humidity (RH). […]

Substance: RRWVRRVRRVWRRVVRVVRRWVRR-NH2 [SEQ ID NO: 1]
- pH ([1]; 15.3 mg/mL solution, 40° C. and 75% RH, 1 Month): Average Reading: 4.9
- pH ([1]; 15.3 mg/mL solution, 40° C. and 75% RH, 2 Month): Average Reading: 5.0
- pH ([1]; 15.3 mg/mL solution, 40° C. and 75% RH, 3 Month): Average Reading: 5.0
- pH ([1]; 15.3 mg/mL solution, 40° C. and 75% RH, 6 Month): 5.0
- pH ([1]; 15.3 mg/mL solution, −20° C., 0 Month): Average Reading: 4.9
- pH ([1]; 15.3 mg/mL solution, −20° C., 1 Month): Average Reading: 5.0
- pH ([1]; 15.3 mg/mL solution, −20° C., 2 Month): Average Reading: 4.9
- pH ([1]; 15.3 mg/mL solution, −20° C., 3 Month): Average Reading: 5.0
- pH ([1]; 15.3 mg/mL solution, −20° C., 6 Month): 5.0
- pH Average Reading ([1]; 36.7 mg/mL solution, 40° C. and 75% RH, 1 Month): Average Reading: 4.8
- pH Average Reading ([1]; 36.7 mg/mL solution, 40° C. and 75% RH, 2 Month): Average Reading: 4.9
- pH Average Reading ([1]; 36.7 mg/mL solution, 40° C. and 75% RH, 3 Month): Average Reading: 5.0
- pH ([1]; 36.7 mg/mL solution, 40° C. and 75% RH, 6 Month): 4.8
- pH ([1]; 36.7 mg/mL solution, −20° C., 0 Month): Average Reading: 4.9
- pH ([1]; 36.7 mg/mL solution, −20° C., 1 Month): Average Reading: 4.8
- pH ([1]; 36.7 mg/mL solution, −20° C., 2 Month): Average Reading: 4.9
- pH ([1]; 36.7 mg/mL solution, −20° C., 3 Month): Average Reading: 5.0
- pH ([1]; 36.7 mg/mL solution, −20° C., 6 Month): 4.9
- pH Average Reading ([1]; 72.4 mg/mL solution, 40° C. and 75% RH, 1 Month): Average Reading: 4.7
- pH Average Reading ([1]; 72.4 mg/mL solution, 40° C. and 75% RH, 2 Month): Average Reading: 4.9
- pH Average Reading ([1]; 72.4 mg/mL solution, 40° C. and 75% RH, 3 Month): Average Reading: 5.0
- pH ([1]; 72.4 mg/mL solution, 40° C. and 75% RH, 6 Month): 4.8
- pH Average Reading ([1]; 72.4 mg/mL solution, −20° C., 0 Month): Average Reading: 4.9
- pH Average Reading ([1]; 72.4 mg/mL solution, −20° C., 1 Month): Average Reading: 4.7
- pH Average Reading ([1]; 72.4 mg/mL solution, −20° C., 2 Month): Average Reading: 4.8
- pH Average Reading ([1]; 72.4 mg/mL solution, −20° C., 3 Month): Average Reading: 5.0
- pH ([1]; 72.4 mg/mL solution, −20° C., 6 Month): 4.8
- pH ([1]; 81.4 mg/mL solution, 40° C. and 75% RH, 1 Month): 4.9
- pH ([1]; 81.4 mg/mL solution, 40° C. and 75% RH, 2 Month): 4.9
- pH ([1]; 81.4 mg/mL solution, 40° C. and 75% RH, 3 Month): 4.9
- pH ([1]; 81.4 mg/mL solution, −20° C., 0 Month): 4.6
- pH ([1]; 81.4 mg/mL solution, −20° C., 1 Month): 4.8
- pH ([1]; 81.4 mg/mL solution, −20° C., 2 Month): 4.9
- pH ([1]; 81.4 mg/mL solution, −20° C., 3 Month): 4.6
- solubility: > 100 mg/mL
